Like-named read-outs stand apart in the source and are kept apart here.
Columns and labels:
Assay type in all cases: in vivo
[1] = tested on: barnyardgrass (Echinochloa crus-galli); experiment: Test A pre-/postemergence greenhouse herbicide test, visual injury rating 0-100; details: for pest or weed control at 500 g/ha: 500 g ai/ha
Outline: (§1)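 Each species was treated both before emergence, via soil spray onto a loam–sand blend, and after emergence at the one- to two-leaf stage. Plants stayed in the greenhouse around 10 days before visual injury assessment.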

corn (Zea mays) = experiment: as above; details: for plant injury at 500 g/ha: 500 g ai/ha
Outline: as §1

[2] = tested on: giant foxtail (Setaria faberii); experiment: as above; details: for pest or weed control at 500 g/ha: 500 g ai/ha
Outline: as §1

[3] = tested on: large (Lg) crabgrass (Digitaria sanguinalis); experiment: as above; details: for pest or weed control at 500 g/ha: 500 g ai/ha
Outline: as §1

[4] = tested on: morningglory (Ipomoea spp.); experiment: as above; details: for pest or weed control at 500 g/ha: 500 g ai/ha
Outline: as §1

[5] = tested on: pigweed (Amaranthus retroflexus); experiment: as above; details: for pest or weed control at 500 g/ha: 500 g ai/ha
Outline: as §1

[6] = tested on: velvetleaf (Abutilon theophrasti); experiment: as above; details: for pest or weed control at 500 g/ha: 500 g ai/ha
Outline: as §1

[7] = tested on: wheat (Triticum aestivum); experiment: as above; details: for plant injury at 500 g/ha: 500 g ai/ha
Outline: as §1

[8] = tested on: giant foxtail (Setaria faberii); experiment: Test C pre-/postemergence greenhouse test, plant response rating 0-100; details: Setaria faberi; for pest or weed control at 62 g/ha: 62 g ai/ha; for pest or weed control at 125 g/ha: 125 g ai/ha; for pest or weed control at 250 g/ha: 250 g ai/ha
Outline: (§2)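 After treatment, pots stay in the greenhouse 13–15 days before each species is compared with untreated controls and given a 0–100 visual score. Preemergence seeds are in loam blended with sand; postemergence plants, 1–4 leaves, are in peat-based medium.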

[9] = tested on: johnsongrass (Sorghum halepense); experiment: as above; details: Sorghum halepense; for pest or weed control at 62 g/ha: 62 g ai/ha; for pest or weed control at 125 g/ha: 125 g ai/ha; for pest or weed control at 250 g/ha: 250 g ai/ha
Outline: as §2

[10] = tested on: winter wheat (Triticum aestivum); experiment: as above; details: Triticum aestivum; for plant injury at 62 g/ha: 62 g ai/ha; for plant injury at 125 g/ha: 125 g ai/ha; for plant injury at 250 g/ha: 250 g ai/ha
Outline: as §2

[11] = tested on: chickweed (common chickweed, Stellaria media); experiment: Test C postemergence greenhouse test, plant response rating 0-100; details: Stellaria media, post-emergence
Outline: (§3)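 Scores run from 0, meaning no effect, to 100, meaning complete control, and come from visual comparison with untreated controls. Treatment was a postemergence application to plants 2–18 cm tall. Assessment followed 13 to 15 days of greenhouse growth.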

kochia (Kochia scoparia) = experiment: as above; details: Bassia scoparia, post-emergence
Outline: as §3

wild oat (Avena fatua) = experiment: as above; details: Avena fatua, post-emergence
Outline: as §3

[12] = post-emergence, Postemergence, read-out: Plant response rating (0 to 100), Foxtail, Giant
[13] = post-emergence, Postemergence, scale 0 to 100
[14] = post-emergence, Postemergence, 500 g ai/ha, scale 0 to 100
[15] = pre-emergence, Preemergence, read-out: Plant response rating, Foxtail, Giant
[16] = post-emergence, Postemergence, read-out: Plant response rating (0 to 100), Johnsongrass
[17] = pre-emergence, Preemergence, read-out: Plant response rating, Johnsongrass
[18] = post-emergence, Postemergence, read-out: Plant response rating (0 to 100), Wheat
[19] = pre-emergence, Preemergence, read-out: Plant response rating, Wheat

`O=C(c1ccccc1)c1cn(CO)nc1-c1cc(Cl)cc(Cl)c1` [Compound 15, [3-(3,5-dichlorophenyl)-1-(hydroxymethyl)-1H-pyrazol-4-yl]phenylmethanone] showed a pest or weed control at 125 g/ha ([1]; Echinochloa crus-galli, post-emergence, 240 h, Postemergence, 125 g ai/ha, read-out: Plant response rating (0 to 100 scale), Barnyardgrass) of 0%, a pest or weed control at 500 g/ha ([1]; Echinochloa crus-galli, post-emergence, 240 h, Postemergence, read-out: Plant response rating (0 to 100 scale), Barnyardgrass) of 0% and a pest or weed control at 500 g/ha ([1]; Echinochloa crus-galli, pre-emergence, 240 h, Preemergence, read-out: Plant response rating (0 to 100 scale), Barnyardgrass) of 0%. For the same molecule, the “Barnyardgrass plant response rating (0 = no effect, 100 = complete control)” value ([1]; Preemergence, 125 g ai/ha) was 0, the “Corn plant response rating (0 = no effect, 100 = complete control)” value (corn (Zea mays); Preemergence, 125 g ai/ha) was 0 and the plant injury at 125 g/ha (corn (Zea mays); Zea mays, post-emergence, 240 h, Postemergence, 125 g ai/ha, read-out: Plant response rating (0 to 100 scale), Corn) was 0%. The plant injury at 500 g/ha (corn (Zea mays); Zea mays, post-emergence, 240 h, Postemergence, read-out: Plant response rating (0 to 100 scale), Corn) was 0%, the plant injury at 500 g/ha (corn (Zea mays); Zea mays, pre-emergence, 240 h, Preemergence, read-out: Plant response rating (0 to 100 scale), Corn) was 0% and the “Foxtail, Giant plant response rating (0 = no effect, 100 = complete control)” value ([2]; Preemergence, 125 g ai/ha) was 0. It also gave a pest or weed control at 125 g/ha ([2]; Setaria faberi, post-emergence, 240 h, Postemergence, 125 g ai/ha, read-out: Plant response rating (0 to 100 scale), Foxtail, Giant) of 0%, a pest or weed control at 500 g/ha ([2]; Setaria faberi, post-emergence, 240 h, Postemergence, read-out: Plant response rating (0 to 100 scale), Foxtail, Giant) of 0% and a pest or weed control at 500 g/ha ([2]; Setaria faberi, pre-emergence, 240 h, Preemergence, read-out: Plant response rating (0 to 100 scale), Foxtail, Giant) of 0%. The pest or weed control at 125 g/ha ([3]; Digitaria sanguinalis, post-emergence, 240 h, Postemergence, 125 g ai/ha, read-out: Plant response rating (0 to 100 scale), Crabgrass, Large) was 0%, the pest or weed control at 500 g/ha ([3]; Digitaria sanguinalis, post-emergence, 240 h, Postemergence, read-out: Plant response rating (0 to 100 scale), Crabgrass, Large) was 0% and the pest or weed control at 500 g/ha ([3]; Digitaria sanguinalis, pre-emergence, 240 h, Preemergence, read-out: Plant response rating (0 to 100 scale), Crabgrass, Large) was 0%. For the same molecule, the “Crabgrass, Large plant response rating (0 = no effect, 100 = complete control)” value ([3]; Preemergence, 125 g ai/ha) was 0, the pest or weed control at 125 g/ha ([4]; Ipomoea, post-emergence, 240 h, Postemergence, 125 g ai/ha, read-out: Plant response rating (0 to 100 scale), Morningglory) was 0% and the pest or weed control at 500 g/ha ([4]; Ipomoea, post-emergence, 240 h, Postemergence, read-out: Plant response rating (0 to 100 scale), Morningglory) was 0%. For the same molecule, the pest or weed control at 500 g/ha ([4]; Ipomoea, pre-emergence, 240 h, Preemergence, read-out: Plant response rating (0 to 100 scale), Morningglory) was 0%, the “Morningglory plant response rating (0 = no effect, 100 = complete control)” value ([4]; Preemergence, 125 g ai/ha) was 0 and the pest or weed control at 125 g/ha ([5]; Amaranthus retroflexus, post-emergence, 240 h, Postemergence, 125 g ai/ha, read-out: Plant response rating (0 to 100 scale), Pigweed) was 80%. For the same molecule, the pest or weed control at 500 g/ha ([5]; Amaranthus retroflexus, post-emergence, 240 h, Postemergence, read-out: Plant response rating (0 to 100 scale), Pigweed) was 90%, the pest or weed control at 500 g/ha ([5]; Amaranthus retroflexus, pre-emergence, 240 h, Preemergence, read-out: Plant response rating (0 to 100 scale), Pigweed) was 100% and the “Pigweed plant response rating (0 = no effect, 100 = complete control)” value ([5]; Preemergence, 125 g ai/ha) was 20. It also gave a pest or weed control at 125 g/ha ([6]; Abutilon theophrasti, post-emergence, 240 h, Postemergence, 125 g ai/ha, read-out: Plant response rating (0 to 100 scale), Velvetleaf) of 80%, a pest or weed control at 500 g/ha ([6]; Abutilon theophrasti, post-emergence, 240 h, Postemergence, read-out: Plant response rating (0 to 100 scale), Velvetleaf) of 90% and a pest or weed control at 500 g/ha ([6]; Abutilon theophrasti, pre-emergence, 240 h, Preemergence, read-out: Plant response rating (0 to 100 scale), Velvetleaf) of 90%. For the same molecule, the “Velvetleaf plant response rating (0 = no effect, 100 = complete control)” value ([6]; Preemergence, 125 g ai/ha) was 40, the “Wheat plant response rating (0 = no effect, 100 = complete control)” value ([7]; Preemergence, 125 g ai/ha) was 0 and the plant injury at 125 g/ha ([7]; Triticum aestivum, post-emergence, 240 h, Postemergence, 125 g ai/ha, read-out: Plant response rating (0 to 100 scale), Wheat) was 0%. The plant injury at 500 g/ha ([7]; Triticum aestivum, post-emergence, 240 h, Postemergence, read-out: Plant response rating (0 to 100 scale), Wheat) was 0%, the plant injury at 500 g/ha ([7]; Triticum aestivum, pre-emergence, 240 h, Preemergence, read-out: Plant response rating (0 to 100 scale), Wheat) was 0% and the pest or weed control at 62 g/ha [8, 12] was 0%. The pest or weed control at 125 g/ha [8, 12] was 0%, the pest or weed control at 250 g/ha [8, 13] was 0% and the pest or weed control at 500 g/ha [8, 14] was 10%. It also gave a pest or weed control at 31 g/ha ([8]; pre-emergence, Preemergence, 31 g ai/ha, read-out: Plant response rating, Foxtail, Giant) of 0%, a pest or weed control at 62 g/ha [8, 15] of 0% and a pest or weed control at 125 g/ha [8, 15] of 0%. The pest or weed control at 250 g/ha ([8]; pre-emergence, Preemergence) was 0%, the pest or weed control at 62 g/ha [9, 16] was 0% and the pest or weed control at 125 g/ha [9, 16] was 0%. The pest or weed control at 250 g/ha [9, 13] was 0%, the pest or weed control at 500 g/ha [9, 14] was 0% and the pest or weed control at 31 g/ha ([9]; pre-emergence, Preemergence, 31 g ai/ha) was 0%. It also gave a pest or weed control at 62 g/ha [9, 17] of 0%, a pest or weed control at 125 g/ha [9, 17] of 0% and a pest or weed control at 250 g/ha ([9]; pre-emergence, Preemergence) of 0%. The plant injury at 62 g/ha [10, 18] was 0%, the plant injury at 125 g/ha [10, 18] was 0% and the plant injury at 250 g/ha [10, 13] was 0%. The plant injury at 500 g/ha [10, 14] was 0%, the plant injury at 62 g/ha [10, 19] was 0% and the plant injury at 125 g/ha [10, 19] was 0%. The plant injury at 250 g/ha ([10]; pre-emergence, Preemergence) was 0%, the pest or weed control at 62 g/ha ([11]; 62 g ai/ha) was 95% and the pest or weed control at 125 g/ha ([11]; 125 g ai/ha) was 95%. For the same molecule, the pest or weed control at 250 g/ha ([11]; 250 g ai/ha, scale 0 to 100) was 100%, the pest or weed control at 500 g/ha ([11]; 500 g ai/ha, scale 0 to 100) was 100% and the pest or weed control at 62 g/ha (kochia (Kochia scoparia); 62 g ai/ha) was 70%. It also gave a pest or weed control at 125 g/ha (kochia (Kochia scoparia); 125 g ai/ha) of 85%, a pest or weed control at 250 g/ha (kochia (Kochia scoparia); 250 g ai/ha, scale 0 to 100) of 85% and a pest or weed control at 500 g/ha (kochia (Kochia scoparia); 500 g ai/ha, scale 0 to 100) of 90%. The pest or weed control at 62 g/ha (wild oat (Avena fatua); 62 g ai/ha) was 0%, the pest or weed control at 125 g/ha (wild oat (Avena fatua); 125 g ai/ha) was 0% and the pest or weed control at 250 g/ha (wild oat (Avena fatua); 250 g ai/ha, scale 0 to 100) was 0%. For the same molecule, the pest or weed control at 500 g/ha (wild oat (Avena fatua); 500 g ai/ha, scale 0 to 100) was 0%.

Source: patent publication US10167262B2, “Herbicidal substituted 3-arylpyrazoles” (FMC CORPORATION, priority 2014, dated 2019)
